Measurements: US20040029787A1, “Use of substances with oxytocin activity against climacteric disorders” (priority 2000, published 2004)
Values joined by “and” are separate entries in the source; they are usually repeats but may differ in a detail not shown here. Equal values may be shown once.

How the values were obtained:
[1] = test system: ovariectomised rats; assay: Hot flush model: tail skin temperature after naloxone withdrawal in morphine-addicted ovariectomised rats; assay type: in vivo, rat; details: vehicle rats 5-6° C. elevation
Description: (§1) Virgin adult cycling Sprague-Dawley rats weighing 300-350 g (Example 4) and 190-210 g (Example 5) and with regular 4-day oestrous cycles were used (Möllegaard, Denmark). The rats were housed 4 to each cage with free access to pelleted food and tap water at 22° C. and with a 12 h light/12 h dark cycle for at least 1 week before and throughout the experimental period.
In this study, ovariectomised rats (300-350 g) were treated with oxytocin for 8 days subcutaneously. Rats were addicted to morphine by implanting a morphine pellet (75 mg each) subcutaneously on days 3 and 5 of treatment. On the last day of treatment, an infrared thermistor was placed above the tail of each animal and morphine addiction was withdrawn by naloxone injection (1.0 mg/kg, subcutaneously). Temperature measurements were taken for 1 h under ketamine (80 mg/kg. intramuscularly) anaesthesia.

[2] = test system: ovariectomised rats; assay: Weight change in ovariectomised rats given subcutaneous oxytocin; assay type: in vivo, rat
Description: (§2) Female sexually mature Sprague-Dawley rats weighing 250-300 g were used (B & K Universal Sollentuna, Sweden). The rats were housed 5 to each cage with free access to food and tap water at 20±2° C. and with a 12 h light/12 h dark cycle for at least 3 weeks before and throughout the experimental period.
A rat having its ovaries removed also gains weight compared to untreated rats.

[3] = test system: postmenopausal women with atrophic, ulcerous vaginal mucous membranes; assay: Intravaginal oxytocin administration to postmenopausal women (seven women, inspection by gynaecologist); assay type: in vivo, human; details: oxytocin 1 mg/ml mixed with 1 ml cellulose gel intravaginally
Description: Seven women at an age of 60-70 years, otherwise completely healthy, with expressed postmenopausal disorders in the form of white, thin, atrophic, easy-bleeding and ulcerous vaginal mucous membranes were included in the study. They were treated with oxytocin 1 mg/ml mixed with 1 ml cellulose gel intravaginally driving five consecutive days,
The treatment was effected by a gynaecologist who inspected the mucous membranes. After a treatment lasting 2-3 days, the mucous membranes had improved in that they looked like those in a female woman.
At the same time, it was observed that the mood of the women was improved. They seemed obviously happy and reported that they felt happy, and many of them had resumed their sex lives.

[4] = test system: ovariectomised rats; assay: Subcutaneous oxytocin administration to ovariectomised rats, endocrine study; assay type: in vivo, rat; details: 1 mg/kg subcutaneously during five days
Description: as §2
Ovariectomy means removal of an ovary or ovaries and can eg be effected according to Merchentaler, I., Funkhouser, J. M., Carver, J. N, Lundeen, S. G., Ghosh, K, Winneker, R. C. The effect of estrogens and antiestrogens in a rat model for hot flush. Maturitas, Nov 16, 1998; 30(3): 307-316.
In an experimental animal study, eight ovariectomised rats were treated with oxytocin. The ovaries were removed in order to create a menopause-like situation. After a mouth, an endocrine study was made. The “menopausal” rats get a changed hormone balance. Their insulin levels and, to a certain extent their blood sugar levels rise, possibly in consequence of increased insulin resistance. Their cortisol and growth hormone levels decrease, which expresses an inability to mobilise calories for activity. An oxytocin treatment during five days (1 mg/kg given subcutaneously during five days) restored the hormone balance.

[5] = test system: ovariectomised rats; assay: Forward locomotion of ovariectomised rats after intravaginal oxytocin gel; assay type: in vivo, rat; parameters: forward locomotion, Minutes 1-15 / forward locomotion, Minutes 16-30 / forward locomotion, Minutes 1-30 / forward locomotion, Minutes 1-15, AVERAGE / forward locomotion, Minutes 16-30, AVERAGE / forward locomotion, Minutes 1-30, AVERAGE: unit not given here
Description: as §2
The ovaries of seven female rats were removed. After 2 weeks, the rats were treated with oxytocin gel given intravaginally (conc. 1 mg/ml). […] Most probably, there is an activation of nerves present in the vaginal mucous membrane.
The total experimental time is 30 minutes per rat, and the values in table I show the forward locomotion for the first 15 minutes, for the whole experimental time, and for the last 15 minutes.

[6] = test system: ovariectomised rats; assay: Tail-flick test in ovariectomised rats after intravaginal oxytocin; assay type: in vivo, rat; details: tails in water at 51° C.; intravaginal oxytocin versus saline; FIG. 4
Description: One way of applying somatic discomfort to an organism is to subject a part of it to a high temperature. This relief effect of oxytocin was investigated in a tail-flick test. In this test the tails of ovariectomised rats were immersed in water at 51° C. With reference to FIG. 4, the latency time from the immersion of the tails to the withdrawal thereof were measured for rats treated with oxytocin (▴) and rats treated with saline (□). For each group of rats, the test sessions were accomplished three times with a period of 15 minutes between the sessions. […] A longer latency time means that the rat could stand the somatic discomfort better such as increased temperature ta it otherwise would do.

[7] = test system: women two years into menopause with vaginal rash, pain and dryness; assay: Double blind intravaginal oxytocin gel versus cellulose gel in 20 menopausal women, biopsy and interview; assay type: in vivo, human
Description: Besides, a further experiment was conducted, wherein 20 women, all of them at two years into menopause and otherwise healthy. None of them underwent hormone replacement therapy. All patients had objective and subjective symptoms of vaginal rash, pain and a feeling of dryness.
Ten patents were treated with oxytocin 1 mg/ml mixed with 1 ml close gel intravaginally during five consecutive days, whereas the remaining ten patients were treated with 1 ml cellulose gel intravaginally dog five consecutive days as control. Before treatment with either control or oxytocin gel we took a biopsy, this procedure was repeated after 5 days of treatment. The protocol was a double blind protocol, ie the microscopic evaluations were performed by the same experienced pathologist before the code was broken.

[8] = test system: ovariectomised rats; assay: Subcutaneous oxytocin combined with hormone treatment in ovariectomised rats, plasma corticosterone and GH; assay type: in vivo, rat; details: oxytocin 1 mg/kg s.c. five days, FIG. 2
From the text: FIG. 2 is a bar graph showing the plasma concentrations of corticosterone and growth hormone (GH) in ovariectomised rats subjected to subcutaneous treatment. Group A refers to rats treated with oestrogen, progesterone, and oxytocin. Group B refers to rats treated with oestragen and progesterone. Group C refers to rats treated with oxytocin. Group D refers to rats treated with saline.
as §2
In another experimental animal study, the effect of oxytocin (1 mg/kg given subcutaneously during five days) combined with hormone treatment was investigated. All treatment groups A-D each contained eight ovariectomised rats. […] Analogously to the insulin levels, the corticosterone and GH levels were normalised (but increased) by oxytocin treatment.

[9] = test system: rats with experimentally-induced polycystic ovaries; assay: Oestradiol valerate induced polycystic ovaries (PCO) in rats, NGF and ovarian morphology; assay type: in vivo, rat; details: oxytocin 1.0 mg/kg subcutaneously every third day
Description: as §1
Statistical analyses were carried out using the SPSS 8.0 software. NGF concentrations in the pituitary gland, the hypothalamus, the hippocampus, the ovary, and the adrenal glands were analysed and the groups compared using analyses of variance (ANOVA) followed by multiple comparison procedures Bonferroni test).
All rats (totally 59) received a single intramuscular injection either of oestradiol valerate (EV), oil, or 0.15 M NaCl (Kabi Pharmacia AB, Sweden) and were anaesthetised with enflurane. Twenty rats re injected with 4 mg EV in 0.2 ml oil/rat (ten rats in the control group and ten in the oxytocin treated). They were decapitated after 30 days to elucidate when the ovaries display characteristic features of well-defined PCO (Brawer et al., 1978, Supra; Brawer et al., 1986, supra). The oxytocin treated group received subcutaneous oxytocin 1.0 mg/kg subcutaneously every third day during the experimental period.

[10] = test system: ovariectomized rats; assay: Bone loss in ovariectomized rats, densitometric and morphometric studies; assay type: in vivo, rat
Description: Four lots of 120-day-old female Wistar rats (mean±SD initial weight 273±28 g) were used. The rats were randomized into groups based on their body weight. […] Sample size was calculated in a pilot study after determining the variability of densitometric measurements.
All rats were fed standard chow feed containing 7.1 g/kg of calcium and 5 g/kg of phosphorus; the energy content of the feed was 3100 kcal/kg. A control group of 15 rats were not manipulated but fed the stud diet (control group, mean initial weight 269±31 g). A experimental group of 15 rats was ovariectomized at 120 days of life and given oxytocin for 10 days 1.0 mg/kg sc. (OVX+Oxy group, mean initial weight 277±32 g). A group of 15 rats underwent ovariectomy (OVX group, mean initial weight 282±27 g). […] The ovariectomy was performed as in previous studies [Rico H, Amo C, Revilla M, Arribas I, Gonzalez-Riola J, Villa L F, Rodriguez-Puyol M Etidronate versus Clodronate in the prevention of postovariectomy bone loss. An experimental study in rats. Clin Exp Rheumatol 1994, 12:301-304]. The manipulated rats were controlled to observe the development of intestinal function, alterations, and infection or dehiscence of surgical sutures. All rats received water ad libitum. The rats were kept for 30 days in the animal laboratory of department of Physiology and Pharmacology, Karolinska Institutet Living conditions (12 hours of light and 12 hours of darkness; mean room temperature 22° C.), habitat, and diet met current guidelines of the European Union. Weight was measured with a precision biomedical balance.
Densitometric and Morphometric Studies. After 30 days, all rats were anesthetized and killed by exsanguination from the abdominal aorta after being anesthetized with 4 mg/100 g body weight of sodium pentothal. The femur and 5th lumbar vertebra of rat were dissected and placed in an 85° C. water bath to remove soft tissue. Femoral length and vertebral height were measured with a caliper and bones were weighed on a precision balance. The BMC and BMD of the whole right femur and 5th lumbar vertebra were measured using a desitometer equipped with a special program for studying small […] and samples. The instrument was calibrated daily. Because of the influence of weight on bone mass in rate [Rico H, Amo C, Revilla M, Arribas I, Gonzalez-Riola J, Villa L F, Rodriguez-Puyol M Etidronate versus Clodronate in the prevention of postovariectomy bone loss. An experimental study in rats. Clin Exp Rheumatol 1994, 12:301-304] and human beings [Rico H, Revilla M, Villa L F, Alvarez de Buergo M A, Ruiz-Contreras D Determinants of total and regional bone mineral content and density in postpubertal normal women. Metabolism 1994, 43 :263-266], BMC was corrected for final body weight (BMC/BW). The BMC and BMD of the femurs and 5th lumbar vertebra were measured separately.

[11] = individual rats R1-R7, oxytocin gel 1 mg/ml intravaginally
[12] = ovariectomized rats, oxytocin 1.0 mg/kg sc for 10 days, after 30 days, mean ± SD

## C#C[C@]1(O)CC[C@H]2[C@@H]3CCc4cc(O)ccc4[C@H]3CC[C@@]21C [17-alpha-ethinyloestradiol]
[1]; 0.1 m g subcutaneous
  tail skin temperature increase (flashes) after naloxone: significantly inhibited

## oxytocin
[2]; oxytocin for 10 days
  food intake: do not eat less
[2]; oxytocin for 10 days subcutaneously, versus saline controls, FIG. 3
  weight gain after ovariectomy: do not gain weight as much
[3]
  mood of the women: improved
  treatment time until mucous membranes had improved: 2 to 3 days
[3]; after 2-3 days
  ulcers of vaginal mucous membranes: all ulcers had disappeared
[3]; five consecutive days, seven women 60-70 years
  state of vaginal mucous membranes on inspection: improved
[4]; compared to NaCl controls
  blood sugar levels: normalised
[4]; compared to control rats treated with NaCl, FIG. 1
  plasma insulin levels: normalised ie lowered
[5]; average of 7 rats (SD 1.36), control average 24.71, T-test 0.03*
  forward locomotion, Minutes 1-30, AVERAGE: 26.91
[5]; average of 7 rats (SD 1.81), control average 27.10, T-test 0.04*
  forward locomotion, Minutes 1-15, AVERAGE: 30.20
[5]; average of 7 rats (SD 2.86), control average 18.33, T-test 0,44 ns
  forward locomotion, Minutes 16-30, AVERAGE: 20.13
[5]; [11]
  forward locomotion, Minutes 1-30: 27.7 (2×) and 25.3 and 25.1 and 26.3 and 28.7 and 27.6
  forward locomotion, Minutes 16-30: 20.3 and 19.8 and 17.7 and 23.2 and 21.6 and 15.3 and 23
[5]; individual rats R1-R7, oxytocin gel 1 mg/ml intravaginally, two days after completed treatment
  forward locomotion, Minutes 1-15: 30.7 and 27.8 and 28.8 and 28.6 and 32.2 and 32.3 and 31
[5]; two days after completed intravaginal treatment, compared to gel without oxytocin
  behaviour changes (motor activity such as forward locomotion): increased motor activity
[6]
  tail-flick latency time (immersion to withdrawal): increases the latency time
[7]; after 5 days of treatment
  inflammation in histology (biopsy): no or a lesser degree of inflammation
[7]; after 5 days of treatment, except cases with normal epithelium before treatment
  histology of vaginal epithelium (biopsy): normalization of the epithelium
[7]; oxytocin 1 mg/ml in 1 ml gel intravaginally, five days, ten patients, versus cellulose gel control
  subjective relief in interviews: expressed relief
[1]; repeated oxytocin 1.0 mg/kg subcutaneous for 8 days
  tail skin temperature increase (flashes) after naloxone: significantly inhibited
[8]; compared with saline treated rats, eight rats per group
  plasma GH levels: significantly higher
[8]; compared with rats treated with oestrogen+progesterone
  plasma corticosterone levels: significantly higher
[9]; 30 days, compared to non-oxy-treated PCO rats
  concentrations of NGF in the ovaries: significantly lower
[9]; versus EV control group
  ovarian morphology (PCO changes): significantly less changes
[10]; [12]
  F-BMC (femur bone mineral content): 335 ± 37 mg
  F-BMC/BW (femur BMC corrected for final body weight): 1.12 ± 0.09 mg/g
  F-BMD (femur bone mineral density): 131 ± 18 mg/cm^2
  Femur (femoral length): 35.5 ± 1.3 mm
  Femur (weight): 712 ± 42 mg
  V-BMC (5th lumbar vertebral bone mineral content): 110 ± 16 mg
  V-BMD (5th lumbar vertebral bone mineral density): 107 ± 13 mg/cm^2
  Vertebra (5th lumbar vertebra weight): 273 ± 32 mg
  Vertebra (5th lumbar vertebral height): 6.9 ± 0.6 mm
[10]; ovariectomized rats, oxytocin 1.0 mg/kg sc for 10 days, after 30 days, mean ± SD, 15 rats
  Final weight: 334 ± 31 g
[10]; oxytocin treatment for 10 days
  bone loss in ovariectomized rats: suppresses bone loss
